According to patent US20220023317A1, “PREVENTING OR MITIGATING CHEMOTHERAPY INDUCED ALOPECIA USING VITAMIN D” (Berg LLC, priority 2013, published 2022):

Columns and labels:
SKMEL-28 = test: Cell growth / viability assay; type: cell-based
HEKa cells = test: Protection of HEKa cells by calcitriol against chemotherapeutic drugs; type: cell-based, human
Procedure: These include: erlotinib (Tarceva), an EGFR Tyr kinase inhibitor; gefutubib (Iressa), an EGFR Tyr kinase inhibitor; sorafenib, inhibitor of several Tyr kinases (Raf, VEGF-R2, c-kit, PDGR-R); Dasatinib, a BCR/ABL Tyr kinase inhibitor; and staurosporin, a relatively nonspecific kinase inhibitor.
The drug treatment period was usually three days. At the end of the three days, the background OD of the 96-well plate was read at 280 nm, before 20 μL of the “Substrate Cell Titer 96 Aqueous One Solution Reagent” (Promega) was added to each well. The plate was returned to the 37° C. incubator, and its OD at 490 nm was read each hour until an OD of approximately 1.5 was reached. The net OD increase was calculated by subtracting the pre-substrate OD reading.
The impact of the drug on the cells was calculated by comparing the OD at different concentrations in relation to the OD of the control wells (without the drug).

C=C1/C(=C\C=C2/CCC[C@]3(C)[C@@H]([C@H](C)CCCC(C)(C)O)CC[C@@H]23)C[C@@H](O)C[C@@H]1O [Calcitriol, (1a.3B.5Z.7E)-9,10-secocholesta-5,7,10(19)-triene-1,3,25-triol]
effect of calcitriol on cell growth (SKMEL-28): no significant growth promoting or growth inhibiting effects | effect of calcitriol on cytotoxic effect of Doxorubicin (SKMEL-28): did not appear to appreciably alter | 5-FU ED50 curve with vs without calcitriol (SKMEL-28; 0.1 μg/mL calcitriol supplement): not significantly different | protective effect against 5-FU (HEKa cells; 0.1 μg/mL calcitriol): mild protective effect | protective effect against doxorubicin (HEKa cells; 0.1 μg/mL calcitriol): did not appear to provide a significant protective effect | protective effect against gemcitabine (HEKa cells; 0.1 μg/mL calcitriol): mild protective effect | protective effect against irinotecan (HEKa cells; 0.1 μg/mL calcitriol): positive protective effect | protective effect against paclitaxel (HEKa cells; 0.1 μg/mL calcitriol): some protective effects | protective effect against tamoxifen (HEKa cells; 0.1 μg/mL calcitriol): weak | interaction (synergy) between calcitriol and drugs tested (HEKa cells; 0.1 μg/mL calcitriol premixed with 15 drugs, three days): no interaction | protection against alkylating agents cisplatin and carboplatin (HEKa cells; 0.1 μg/mL calcitriol, low dosage levels): moderate level of protection | protective effect against kinase inhibitor drugs (HEKa cells; 0.1 μg/mL calcitriol, erlotinib, gefitinib, sorafenib, dasatinib, staurosporin at low drug dosage): provided certain growth stimulation and protected the HEKa cells
